pKi: −log10 of the molar value. “Also recorded” adds a separate entry of the source.
Assays:
[1] = molecular target: T1, mu-type opioid receptor (Rattus norvegicus, UniProt P33535); test: inhibition of specific [^3 H] DAGO binding to rat forebrain membranes; conditions: (Ki) nM, μ receptor (Rat Forebrain), Table 6; [^3 H] DAGO, mean of three experiments
T1 construct: using rat forebrain membranes; from tissue; host or cells: rat forebrain membranes
Experimental: (§1) The interaction of some of the novel compounds with mu and delta-type opioid receptors present in brain membranes was examined in vitro. […] DAGO (mu-type receptor) or [^3 H] DADLE (delta-type receptor) was determined using rat forebrain membranes. Computer assisted analysis (EBDA) was used to determine apparent Ki values for the various compounds.
(§2) Values represent the MEAN±S.E.M. of the Ki(nM) for each compound to inhibit specific binding of the indicated ligand to rat brain membranes. The values are from two-five separate experiments and were calculated according to the method of Cheng and Prusoff [Biochem. Pharmacol. 1973, 22, 3099-3108] together with the EBDA Program. Numbers in parentheses are the mean Hill coefficients for each compound to inhibit ligand binding.
as §2, with “two.div.seven” for “two-five”, “Prusoff” for “Prusoff [Biochem. Pharmacol. 1973, 22, 3099-3108]”, “program.” for “Program.”, “binding. N.D.=not determined” for “binding.”
(§3) The interaction of some of the novel compounds with mu, delta and kappa - type opioid receptors present in brain membranes was examined in vitro. […] DAGO (mu-type receptor), or [^3 H] DADLE (Delta-type receptor) using rat forebrain membranes and [^3 H] EKC (kappa-type receptor) using guiniea pig cerebellum membrane was determined. Computer assisted analysis (EBDA) was used to determine apparent Ki values for the various compounds.
(§4) The values represent the MEAN±S.E.M. of the Ki(nM) for each compound to inhibit specific binding of the indicated ligand. Each value represents the mean of three individual experiments performed on separate occasions.

[2] = tested on: tail flick response; test: radiant heat tail flick analgesia in rats; assay type: in vivo, rat
Experimental: The analgesic properties of the compounds prepared in accordance with Examples III and IV were evaluated in rats using the radiant heat and tail flick paradigm. […] Flick latencies in FIGS. 11-13 were determined at 30 minute intervals through 3.5 h and the data was expressed as a percentage of the maximum possible effect (% MPE). A 15 sec. cut-off latency was used to minimize tissue damage. The values shown are the mean values for 6 rats.
A 15 sec. cut-off latency was used to prevent tissue damage.
The analgesic properties of compounds XXII and XXIII were evaluated in rats using the writhing assay and tail flick paradigm. […] The writhing assay which uses a chemical stimulus to produce pain, is believed to be more sensitive to kappa agonist activity than other measures of analgesia which uses a heat stimulus (Dykstra, L.A. Behavioral Pharmacology: The Current Status, N.Y.: Allan R. Liss. Inc. 1985).

[3] = molecular target: delta-type opioid receptor (Rattus norvegicus, UniProt P33533); test: inhibition of specific [^3 H] DADLE binding to rat forebrain membranes; conditions: read-out: (Ki) nM, δ receptor (Rat Forebrain); Table 6; [^3 H] DADLE, mean of three experiments
Chain of delta-type opioid receptor (P33533 whole entry): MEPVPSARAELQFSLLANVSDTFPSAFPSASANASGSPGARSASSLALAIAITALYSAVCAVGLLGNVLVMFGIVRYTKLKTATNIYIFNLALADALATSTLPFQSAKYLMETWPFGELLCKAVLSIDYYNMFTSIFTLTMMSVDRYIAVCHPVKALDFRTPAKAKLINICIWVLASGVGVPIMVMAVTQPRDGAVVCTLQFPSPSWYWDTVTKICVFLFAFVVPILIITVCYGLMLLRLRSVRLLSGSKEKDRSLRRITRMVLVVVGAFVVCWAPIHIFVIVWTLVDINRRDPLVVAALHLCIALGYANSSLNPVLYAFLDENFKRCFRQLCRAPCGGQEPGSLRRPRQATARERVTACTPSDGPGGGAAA
Experimental: as §1, §2
as §2, with “two.div.seven” for “two-five”, “Prusoff” for “Prusoff [Biochem. Pharmacol. 1973, 22, 3099-3108]”, “program.” for “Program.”, “binding. N.D.=not determined” for “binding.”
as §3, §4

[4] = tested on: writhing response; test: animal or person; assay type: in vivo, mouse; conditions: for ED50: Mus musculus, Table 7, read-out: ED50, Acetic Acid Induced Writhing in the Mouse
[5] = molecular target: T2, kappa-type opioid receptor (Cavia porcellus, UniProt P41144); test: inhibition of specific [^3 H] EKC binding to guinea pig cerebellum membrane
T2 construct: using guiniea pig cerebellum membrane; from tissue; host or cells: guinea pig cerebellum membranes
T2 sequence (P41144 whole entry): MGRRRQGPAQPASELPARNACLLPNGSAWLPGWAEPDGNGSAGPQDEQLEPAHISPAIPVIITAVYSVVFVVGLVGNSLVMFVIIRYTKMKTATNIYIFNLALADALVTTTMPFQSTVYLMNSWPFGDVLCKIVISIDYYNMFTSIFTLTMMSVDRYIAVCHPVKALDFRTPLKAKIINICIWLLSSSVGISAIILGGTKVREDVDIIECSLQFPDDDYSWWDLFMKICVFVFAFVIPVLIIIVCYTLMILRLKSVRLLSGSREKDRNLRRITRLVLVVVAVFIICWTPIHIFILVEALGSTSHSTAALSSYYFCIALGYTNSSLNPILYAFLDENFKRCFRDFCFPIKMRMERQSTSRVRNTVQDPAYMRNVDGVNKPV
Experimental: as §3, §4

[6] = tested on: oxymorphonazine (OMZ)-induced analgesia; test: antagonism of oxymorphonazine (OMZ)-induced analgesia (tail flick) in rats; assay type: in vivo, rat; conditions: for ED50 / ED100: Rattus norvegicus, sc, Table 8; for ED50 / ED100 / Percent Antagonism at 1 Hr / Percent Antagonism at 1.5 Hr / Percent Antagonism at 2 Hr / Percent Antagonism at 3 Hr / Percent Antagonism at 4 Hr / Percent Antagonism at 6 Hr / Percent Antagonism at 8 Hr: S.C.; for ED50: read-out: ED 50, oxymorphonazine antagonism; for ED100: read-out: ED 100, oxymorphonazine antagonism; for Percent Antagonism at 1 Hr / Percent Antagonism at 1.5 Hr / Percent Antagonism at 2 Hr / Percent Antagonism at 3 Hr / Percent Antagonism at 4 Hr / Percent Antagonism at 6 Hr / Percent Antagonism at 8 Hr: dose tested (mg/kg): Naltrexone 0.5, Nalmefene 1.0, XI 10.0, XII 2.5, XIII 0.5, XIV 5.0
Experimental: The compound of Example XII was evaluated for its potency and duration in the antagonism of oxymorphonazine (OMZ)-induced analgesia. […] Data represent the mean SEM of 4-5 animals per group.
(Cowan A. Trendsin Pharmacology Science, 7:69-72, 1986) With this test the intracerebroventricular administration of bombesin produces a characteristic scratching response.

[7] = water intake in 24 hr food-deprived rats; assay type: in vivo, rat; conditions: for effect on water intake: S.C.; for Water Intake: Table 3, 24 hr; for Cumulative Water Intake: Table 5
Experimental: (§5) Rats were given water and powdered food ad lib for 8 days until food intake had stabilized, and body weight and food and water intakes were recorded at the same time every day. Animals were assigned to treatment groups matched on the basis of their 24 hr food consumption on the last baseline day, and rats were food deprived for 24 hr immediately before injection of the test compound. […] The compound of Example XII was injected S.C. at doses of 1.15, 2.31, 11.55 and 23.09 μmol/kg, in a volume of 4 ml/kg of 0.3% acetic acid. Controls were injected with the vehicle solutions in the appropriate volumes. Food and water intakes were measured at 1, 3 and 24 hr after treatment. Data for each measure and time point were analyzed by one-way analysis of variance (ANOVA), and post-hoc comparisons were performed using Dunnett's test in order to compare the control mean to each of the treatment means.
(§6) Rats were given water and powdered food for 8 days, and following this,
(§7) Testing was performed as described above, and baseline measurements were recorded for 7 days. […] The compound of Example XII was injected at doses of 11.55, 23.09, 46.19 and 92.38 μmol/kg by suspension in a solution of 1:1 DMSO:water in a volume of 3 ml/kg. Food and water intakes were recorded at 1, 2, 4 and 6 h following treatment.
See Table 3 for experimental details, except that baseline measurements

[8] = food intake in 24 hr food-deprived rats; assay type: in vivo, rat; conditions: for Food Intake in Grams: Table 3, 24 hr; for Cumulative Food Intake in Grams: Table 4
Experimental: as §5, §6, §7
See Table 3 for experimental details, except that baseline measures were […]

T1 sequence (P33535 whole entry): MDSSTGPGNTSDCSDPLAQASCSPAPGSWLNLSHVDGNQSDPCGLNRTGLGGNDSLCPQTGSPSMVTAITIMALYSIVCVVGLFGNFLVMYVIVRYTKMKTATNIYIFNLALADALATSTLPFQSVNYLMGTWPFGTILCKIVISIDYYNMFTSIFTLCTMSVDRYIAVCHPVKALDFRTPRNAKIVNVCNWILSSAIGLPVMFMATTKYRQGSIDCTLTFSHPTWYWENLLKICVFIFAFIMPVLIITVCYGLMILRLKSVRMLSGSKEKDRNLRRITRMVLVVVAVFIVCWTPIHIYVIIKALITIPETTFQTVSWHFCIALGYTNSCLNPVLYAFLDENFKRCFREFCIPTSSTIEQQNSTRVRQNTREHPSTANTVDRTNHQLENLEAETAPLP

## Oc1ccc2c3c1O[C@H]1C(=NOCCc4ccccc4)CC[C@@]4(O)[C@@H](C2)N(CC2CC2)CC[C@]314 [Example XXII, 6-[2-phenethyl]oximino-17-cyclopropylmethyl-4,5 α-epoxy-3,14-dihydroxymorphinan]
[1]
  Ki: 0.88 nM
[2]; Rattus norvegicus, Table 7, read-out: ED50, Antagonism of the Tail-Flick Response in the Rat
  ED50: 4.02 mg/kg
[2]; rat
  antagonism of tail-flick response to heat: effectively antagonized the tail-flick response to a heat stimulus in the rat
[3]
  Ki: 0.6 nM
[4]
  ED50: 0.01 mg/kg
[4]; mouse, in vivo, ip
  potency versus morphine to antagonize writhing response: more potent than morphine to antagonize the writhing response
[4]; writhing and tail flick
  kappa selectivity and agonist activity: selective to kappa receptors and possess kappa agonist activity
[5]
  pKi: 9.55
[5]; than other compounds or naltrexone
  fold more potent to inhibit specific [3H]EKC: 3 fold

## C=C1CC[C@@]2(O)[C@H]3Cc4ccc(O)c5c4[C@@]2(CCN3CC2CC2)[C@H]1O5 [Nalmefene, reference compound]
[1]
  Ki: 0.64 nM
[3]
  Ki: 0.87 nM
[6]
  ED50: 0.12 mg/kg
  ED100: 1.35 mg/kg
  Percent Antagonism at 1 Hr: 85%
  Percent Antagonism at 1.5 Hr: 92%
  Percent Antagonism at 2 Hr: 83%
  Percent Antagonism at 3 Hr: 73%
  Percent Antagonism at 4 Hr: 46%
  Percent Antagonism at 6 Hr: 0%
  Percent Antagonism at 8 Hr: 37%
[4]
  ED50: > 30 mg/kg
[5]
  pKi: 9.05

## O=C1CC[C@@]2(O)[C@H]3Cc4ccc(O)c5c4[C@@]2(CCN3CC2CC2)[C@H]1O5 [Naltrexone, naltrexone]
[7]; 1 and 3 hr, lower dose experiment (FIGS. 24, 25)
  effect on water intake: inhibited drinking at all doses tested at the 1 and 3 hr time points
[7]; 1 and 3 hr, lower dose experiment (FIGS. 24, 25), listed as naltrexone
  effect on water intake: effectively inhibited drinking at all doses tested during the first three hours after administration
[7]; higher dose time course experiment, 0-6 hr
  effect on water intake: significant effects at 0-1 hr, 0-2 hr and 0-4 hr
[7]; S.C. 1.47 μmol/kg
  Water Intake: 69.0 ± 3.5 mL
[7]; S.C. 2.93 μmol/kg
  Water Intake: 62.4 ± 3.8 mL
[7]; S.C. 14.66 μmol/kg
  Water Intake: 53.4 ± 5.5 mL
[7]; S.C. 29.33 μmol/kg
  Water Intake: 66.0 ± 2.8 mL
[7]; S.C. 14.66 μmol/kg, 0-1 Hr
  Cumulative Water Intake: 5.2 ± 1.1 mL
[7]; S.C. 14.66 μmol/kg, 0-2 Hr
  Cumulative Water Intake: 9.2 ± 1.1 mL
[7]; S.C. 14.66 μmol/kg, 0-4 Hr
  Cumulative Water Intake: 15.2 ± 2.0 mL
[7]; S.C. 14.66 μmol/kg, 0-6 Hr
  Cumulative Water Intake: 22.8 ± 2.1 mL
[7]; S.C. 29.33 μmol/kg, 0-1 Hr
  Cumulative Water Intake: 5.2 ± 0.6 mL
[7]; S.C. 29.33 μmol/kg, 0-2 Hr
  Cumulative Water Intake: 8.4 ± 0.5 mL
[7]; S.C. 29.33 μmol/kg, 0-4 Hr
  Cumulative Water Intake: 15.2 ± 1.1 mL
[7]; S.C. 29.33 μmol/kg, 0-6 Hr
  Cumulative Water Intake: 21.6 ± 3.1 mL
[7]; S.C. 58.65 μmol/kg, 0-1 Hr
  Cumulative Water Intake: 3.6 ± 0.8 mL
[7]; S.C. 58.65 μmol/kg, 0-2 Hr
  Cumulative Water Intake: 6.8 ± 0.6 mL
[7]; S.C. 58.65 μmol/kg, 0-4 Hr
  Cumulative Water Intake: 13.2 ± 1.3 mL
[7]; S.C. 58.65 μmol/kg, 0-6 Hr
  Cumulative Water Intake: 22.4 ± 2.6 mL
[7]; S.C. 117.30 μmol/kg, 0-1 Hr
  Cumulative Water Intake: 3.6 ± 0.8 mL
[7]; S.C. 117.30 μmol/kg, 0-2 Hr
  Cumulative Water Intake: 9.2 ± 0.9 mL
[7]; S.C. 117.30 μmol/kg, 0-4 Hr
  Cumulative Water Intake: 16.0 ± 1.6 mL
[7]; S.C. 117.30 μmol/kg, 0-6 Hr
  Cumulative Water Intake: 26.8 ± 3.4 mL
[6]; PO, naltrexone 26.53 μmol/kg
  time course of antagonism of OMZ-induced analgesia, PO: a trend for progressive loss of the antagonistic effect over 0.5-4.0 hours, although the reversal was not complete by eight hours
[6]
  ED50: 0.07 mg/kg
  ED100: 0.62 mg/kg
  Percent Antagonism at 1 Hr: 98%
  Percent Antagonism at 1.5 Hr: 76%
  Percent Antagonism at 2 Hr: 79%
  Percent Antagonism at 3 Hr: 47%
  Percent Antagonism at 4 Hr: 30%
  Percent Antagonism at 6 Hr: 4%
  Percent Antagonism at 8 Hr: 4%
[6]; SC, naltrexone 1.33 μmol/kg, OMZ 19 μmol/kg SC
  duration of antagonism of OMZ-induced analgesia, SC: up to 1 hr
[4]
  ED50: > 30 mg/kg
[8]; S.C., 1, 3 and 24 hr, lower dose experiment (FIGS. 22, 23)
  effect on feeding: 14.66 and 29.33 μmol/kg doses of naltrexone inhibited feeding at 3 hr following treatment
[8]; S.C., higher dose time course experiment, 0-6 hr
  effect on feeding: at all doses decreased feeling up to 4 hr after administration, and the two lower doses also decreased feeding at 6 hr post treatment
[8]; S.C. 1.47 μmol/kg
  Food Intake in Grams: 33.0 ± 0.7 Grams
[8]; S.C. 2.93 μmol/kg
  Food Intake in Grams: 33.2 ± 3.0 Grams
[8]; S.C. 14.66 μmol/kg
  Food Intake in Grams: 37.6 ± 4.2 Grams
[8]; S.C. 29.33 μmol/kg
  Food Intake in Grams: 40.7 ± 8.2 Grams
[8]; S.C. 14.66 μmol/kg, 0-1 Hr
  Cumulative Food Intake in Grams: 3.6 ± 0.5 Grams
[8]; S.C. 14.66 μmol/kg, 0-2 Hr
  Cumulative Food Intake in Grams: 3.6 ± 0.5 Grams
[8]; S.C. 14.66 μmol/kg, 0-4 Hr
  Cumulative Food Intake in Grams: 4.0 ± 0.0 Grams
[8]; S.C. 14.66 μmol/kg, 0-6 Hr
  Cumulative Food Intake in Grams: 5.2 ± 0.6 Grams
[8]; S.C. 29.33 μmol/kg, 0-1 Hr
  Cumulative Food Intake in Grams: 3.2 ± 0.6 Grams
[8]; S.C. 29.33 μmol/kg, 0-2 Hr
  Cumulative Food Intake in Grams: 3.2 ± 0.6 Grams
[8]; S.C. 29.33 μmol/kg, 0-4 Hr
  Cumulative Food Intake in Grams: 4.4 ± 0.5 Grams
[8]; S.C. 29.33 μmol/kg, 0-6 Hr
  Cumulative Food Intake in Grams: 5.2 ± 0.9 Grams
[8]; S.C. 58.65 μmol/kg, 0-1 Hr
  Cumulative Food Intake in Grams: 2.8 ± 1.1 Grams
[8]; S.C. 58.65 μmol/kg, 0-2 Hr
  Cumulative Food Intake in Grams: 2.8 ± 1.1 Grams
[8]; S.C. 58.65 μmol/kg, 0-4 Hr
  Cumulative Food Intake in Grams: 3.2 ± 0.9 Grams
[8]; S.C. 58.65 μmol/kg, 0-6 Hr
  Cumulative Food Intake in Grams: 6.4 ± 0.5 Grams
[8]; S.C. 117.30 μmol/kg, 0-1 Hr
  Cumulative Food Intake in Grams: 3.6 ± 0.8 Grams
[8]; S.C. 117.30 μmol/kg, 0-2 Hr
  Cumulative Food Intake in Grams: 3.6 ± 0.8 Grams
[8]; S.C. 117.30 μmol/kg, 0-4 Hr
  Cumulative Food Intake in Grams: 4.8 ± 0.9 Grams
[8]; S.C. 117.30 μmol/kg, 0-6 Hr
  Cumulative Food Intake in Grams: 7.6 ± 1.3 Grams
[8]; food intake/2 hr interval, FIGS. 26 and 27
  food intake in 4-6 hr interval: rats treated with the two highest doses of naltrexone are beginning to resume feeding; also recorded: an increase in food consumption at some doses compared to controls

Reference: patent publication US4889860A (Nova Pharmaceutical Corporation, priority 1987, dated 1989)
